Data as given in ChEMBL document CHEMBL1201862, “PubChem BioAssay data set” (2004).
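A five-concentration, 48-hour dose response in 96-well plates underlies each endpoint, interpolated linearly between surrounding concentrations. Abbreviation: GI50, concentration required for 50% inhibition of growth.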 Active and inactive are the calls of the source. No stated cut-off is given here; in the data, active = GI50 up to about 1.1 µM and inactive = higher.

Legend:
Assay in all cases: growth of human tumour cells (NCI), 48 h
A549 = system: A549
ACHN = system: ACHN
CAKI-1 = system: CAKI-1
CCRF-CEM = system: CCRF-CEM
EKVX = system: EKVX
HCT-15 = system: HCT-15
HOP-62 = system: HOP-62
Malme-3M = system: Malme-3M
OVCAR-3 = system: OVCAR-3
OVCAR-4 = system: OVCAR-4
RPMI-8226 = system: RPMI-8226
SK-MEL-28 = system: SK-MEL-28
SK-MEL-2 = system: SK-MEL-2
SK-OV-3 = system: SK-OV-3
SNB-75 = system: SNB-75
UACC-257 = system: UACC-257
UACC-62 = system: UACC-62

Structure (SMILES) | GI50 (A549) | GI50 (ACHN) | GI50 (CAKI-1) | GI50 (CCRF-CEM) | GI50 (EKVX) | GI50 (HCT-15) [µM] | GI50 (HOP-62) | GI50 (Malme-3M) | GI50 (OVCAR-3) | GI50 (OVCAR-4) | GI50 (RPMI-8226) | GI50 (SK-MEL-28) | GI50 (SK-MEL-2) | GI50 (SK-OV-3) | GI50 (SNB-75) | GI50 (UACC-257) | GI50 (UACC-62)
N#C/C(=C\c1c(O)cc(O)cc1O)C(N)=O | > 100 µM (inactive) | > 100 µM (inactive) | > 100 µM (inactive) | > 100 µM (inactive) | > 100 µM (inactive) | > 100 | > 100 µM (inactive) | > 100 µM (inactive) | > 100 µM (inactive) | > 100 µM (inactive) | > 100 µM (inactive) | > 100 µM (inactive) | > 100 µM (inactive) | > 100 µM (inactive) | 36.2 µM (inactive) | > 100 µM (inactive) | 
Oc1ccccc1/C=C/c1csnn1 | > 100 µM (inactive) | > 100 µM (inactive) | > 100 µM (inactive) | > 100 µM (inactive) | > 100 µM (inactive) | > 51.4 | > 100 µM (inactive) | > 100 µM (inactive) | > 100 µM (inactive) | > 100 µM (inactive) | > 100 µM (inactive) | > 100 µM (inactive) | > 100 µM (inactive) | > 100 µM (inactive) | > 100 µM (inactive) | > 100 µM (inactive) | > 100 µM (inactive)
COc1ccc([N+]2=NC(c3ccc([N+](=O)[O-])cc3)=NN(c3ccccc3)C2)cc1.[O-][Cl+3]([O-])([O-])[O-] | > 100 µM (inactive) | 86.5 µM (inactive) |  | 21.2 µM (inactive) | 91.2 µM (inactive) | 41.9 | > 100 µM (inactive) | > 100 µM (inactive) | 79.4 µM (inactive) | > 100 µM (inactive) | 33 µM (inactive) | > 100 µM (inactive) |  |  |  | > 100 µM (inactive) | 
CO[C@H](c1ccccc1)[C@H](C)N(C)c1ccc2ccccc2c1C1=NC(C)(C)CO1 | 15.9 µM (inactive) | 16 µM (inactive) | > 10 µM (inactive) | 15.4 µM (inactive) | 20.1 µM (inactive) | 14.6 | 21 µM (inactive) | 16.3 µM (inactive) | 15.9 µM (inactive) | > 10 µM (inactive) | 15.6 µM (inactive) | 18.3 µM (inactive) | 14.3 µM (inactive) | 19.2 µM (inactive) | 15.5 µM (inactive) | 15.7 µM (inactive) | 33.1 µM (inactive)
CCOC(=O)c1cnc2cc3cccccc3n2c1=O | > 100 µM (inactive) | > 100 µM (inactive) | > 100 µM (inactive) | > 100 µM (inactive) | > 100 µM (inactive) | > 100 | > 100 µM (inactive) |  | > 100 µM (inactive) | > 100 µM (inactive) | > 100 µM (inactive) | > 100 µM (inactive) | > 100 µM (inactive) |  | 97.5 µM (inactive) | > 100 µM (inactive) | > 100 µM (inactive)
C[N+](C)(C)CC(=O)N/N=C(/Cc1nc2ccc([N+](=O)[O-])cc2nc1O)C(=O)Nc1cc(C(F)(F)F)ccc1Cl | > 100 µM (inactive) | > 100 µM (inactive) | > 100 µM (inactive) | 66.7 µM (inactive) | 76 µM (inactive) |  | > 100 µM (inactive) | > 100 µM (inactive) | > 100 µM (inactive) | > 100 µM (inactive) | 63.1 µM (inactive) | > 100 µM (inactive) | > 100 µM (inactive) | > 100 µM (inactive) |  | > 100 µM (inactive) | 94.2 µM (inactive)
Cc1c(C(=O)CC(=O)C(=O)Nc2ccc(Cl)c(Cl)c2)[n+]([O-])c2ccccc2[n+]1[O-] | 27 µM (inactive) | 20.3 µM (inactive) | 51.9 µM (inactive) | 17.2 µM (inactive) | 12.5 µM (inactive) | 20.5 | 64.4 µM (inactive) | 18.8 µM (inactive) | 2.42 µM (inactive) | 15.2 µM (inactive) | 20.8 µM (inactive) | 37.9 µM (inactive) | 26.9 µM (inactive) | 41.6 µM (inactive) | 18.9 µM (inactive) | 17.5 µM (inactive) | 17.3 µM (inactive)
Cc1cc(Cl)cc2c1NC(=O)C2(O)CC(=O)c1ccc(Br)cc1 (stereo not given) | > 100 µM (inactive) | 39.4 µM (inactive) | > 100 µM (inactive) | 18.6 µM (inactive) | 59.4 µM (inactive) | 57 | > 100 µM (inactive) | > 100 µM (inactive) | 63 µM (inactive) | 14.2 µM (inactive) | 35 µM (inactive) | 35.6 µM (inactive) | > 100 µM (inactive) | > 100 µM (inactive) | 45.5 µM (inactive) | 32.6 µM (inactive) | 21.6 µM (inactive)
CCCC(C)C[C@@H](C)CC(C)/C=C(\C)c1oc(=O)c(C)c(O)c1C.CC[C@@H](C)C[C@@H](C)C[C@@H](C)/C=C(\C)c1oc(=O)c(C)c(O)c1C (stereo not given in full) | 17.3 µM (inactive) | 5.57 µM (inactive) | 13.4 µM (inactive) |  | 15.2 µM (inactive) |  | 18.7 µM (inactive) | 3.56 µM (inactive) | 6.78 µM (inactive) | 10.4 µM (inactive) |  | 14.8 µM (inactive) | 9.48 µM (inactive) |  | 13.6 µM (inactive) | 14.7 µM (inactive) | 
CC1(O)C(C)(O)C2(C)O[Te]3(OC12C)OC1(C)C(C)(O)C(C)(O)C1(C)O3 (stereo not given) | 6.67 µM (inactive) | 31.3 µM (inactive) |  | 2.41 µM (inactive) | > 100 µM (inactive) | 11.5 | > 100 µM (inactive) | 96.2 µM (inactive) | 20.2 µM (inactive) | 24.3 µM (inactive) | 15.5 µM (inactive) | 16.2 µM (inactive) | 44.6 µM (inactive) | > 10 µM (inactive) | > 100 µM (inactive) | > 100 µM (inactive) | 35.6 µM (inactive)
C/C(CC(=O)Nc1ccccc1C)=N/NS(=O)(=O)c1ccc(C)cc1 | > 100 µM (inactive) | > 100 µM (inactive) |  | > 100 µM (inactive) | > 100 µM (inactive) |  | > 100 µM (inactive) | > 100 µM (inactive) | > 100 µM (inactive) |  | > 100 µM (inactive) | > 100 µM (inactive) | > 100 µM (inactive) | > 100 µM (inactive) | > 100 µM (inactive) | > 100 µM (inactive) | > 100 µM (inactive)
CCCCCCN(N)C(=O)CC#N | > 100 µM (inactive) | 95.5 µM (inactive) | > 100 µM (inactive) | > 100 µM (inactive) | > 100 µM (inactive) | > 100 | > 100 µM (inactive) | > 100 µM (inactive) | 79.1 µM (inactive) | 48.4 µM (inactive) | 19.8 µM (inactive) | > 100 µM (inactive) |  | > 100 µM (inactive) | > 100 µM (inactive) | > 100 µM (inactive) | 60.4 µM (inactive)
C/C(=N/N)c1ccc2[nH]c3c(C)cc([N+](=O)[O-])c(C)c3c2c1 | 11.1 µM (inactive) | 9.38 µM (inactive) | > 10 µM (inactive) | 3.13 µM (inactive) | 22.2 µM (inactive) | 9.55 | 8.07 µM (inactive) | 4.33 µM (inactive) | 14.9 µM (inactive) | 14.8 µM (inactive) | 8.97 µM (inactive) | 6.07 µM (inactive) | 11.3 µM (inactive) |  | 22.9 µM (inactive) | 18.6 µM (inactive) | 
O=C1CCCC2COc3ccc(O)c1c32 (stereo not given) | > 100 µM (inactive) | > 100 µM (inactive) |  | > 100 µM (inactive) | > 100 µM (inactive) | > 100 | > 100 µM (inactive) | > 100 µM (inactive) | > 100 µM (inactive) | > 100 µM (inactive) | > 100 µM (inactive) | > 100 µM (inactive) | > 100 µM (inactive) | > 100 µM (inactive) | > 100 µM (inactive) | > 100 µM (inactive) | > 100 µM (inactive)
Cc1cc(O)c2c3c1C(=O)Oc1c(CO)c(O)c(C(=O)O)c(c1O3)C=NN=Cc1c3c(c(CO)c(O)c1C(=O)O)OC(=O)c1c(C)cc(O)c(c1O3)C=NN=C2 | > 100 µM (inactive) | > 100 µM (inactive) | > 100 µM (inactive) |  | > 100 µM (inactive) | > 100 | > 100 µM (inactive) | > 100 µM (inactive) | 32.7 µM (inactive) | > 100 µM (inactive) |  | > 100 µM (inactive) |  | > 100 µM (inactive) | > 100 µM (inactive) | > 100 µM (inactive) | > 100 µM (inactive)
Cc1no[n+]([O-])c1/C=N/NS(=O)(=O)c1ccccc1 | > 100 µM (inactive) |  | > 100 µM (inactive) | > 10 µM (inactive) | > 100 µM (inactive) | > 100 | > 100 µM (inactive) | > 100 µM (inactive) | > 100 µM (inactive) | > 100 µM (inactive) | > 100 µM (inactive) | > 100 µM (inactive) | > 100 µM (inactive) | > 100 µM (inactive) |  |  | > 100 µM (inactive)
O=c1c(-c2cccc3ccccc23)c(-c2cccc3ccccc23)c1=O | 0.741 µM (active) | 0.716 µM (active) | 2.91 µM (inactive) | 0.395 µM (active) | 7.67 µM (inactive) | 2.42 | 3.57 µM (inactive) | 2.18 µM (inactive) | 0.577 µM (active) |  | 0.736 µM (active) | 10.6 µM (inactive) | 2.29 µM (inactive) | 10.8 µM (inactive) | 0.2 µM (active) | 4.25 µM (inactive) | 1.04 µM (active)
Cn1ccnc1CCc1c(Cl)cccc1Cl | > 100 µM (inactive) | > 100 µM (inactive) | > 100 µM (inactive) | > 100 µM (inactive) |  | > 100 | > 100 µM (inactive) | > 100 µM (inactive) | > 100 µM (inactive) | > 100 µM (inactive) | > 100 µM (inactive) | > 100 µM (inactive) | > 100 µM (inactive) | > 100 µM (inactive) | > 100 µM (inactive) | > 100 µM (inactive) | > 100 µM (inactive)
